The values that follow are results of earlier work, collected in patent publication US8883204B2, “Tamper resistant co-extruded dosage form containing an active agent and an adverse agent and process of making same” (Purdue Pharma L.P., priority 2003, dated 2014).

For this data set the following is noted: administered orally.

On to `C[C@H]1[C@H]2Cc3ccc(O)cc3[C@]1(C)CCN2CC1CC1` [cyclazocine], for which the duration of action is roughly 24 h.

Turning to `O=C1CC[C@@]2(O)[C@H]3Cc4ccc(O)c5c4[C@@]2(CCN3CC2CC2)[C@H]1O5` [naltrexone], the duration of action was roughly 24 h.
